As usually defined, the solubility is how much of the substance goes into solution per volume.

Data set [1] in a line: Competitive slurry conversion of crystalline modifications A1 and NF3 in organic solvents (Example 10). The class given is physicochemical. As to conditions: 25° C. and 50° C., in words. As for the experimental part: PTFE-coated stirring rods were inserted into the dispersions prior to sealing the vials. Dispersions were agitated in closed vials for 5 days, using a magnetic stirrer, at 25° C. and 50° C., respectively. Solid-state residues were filtered, and analyzed by XRD to monitor morphic form after solvent slurrying.

Data set [2] can be described thus: Water Vapour Sorption Isotherm (25° C.). Format: physicochemical. As to conditions: for Relative humidity range with small water uptake levels upon adsorption / Relative humidity above which pronounced water uptake levels are observed / Water uptake levels at elevated relative humidity (hydrate formation) / Relative humidity above which re-conversion to the hydrate form occurs upon adsorption / Relative humidity below which hydrate water is lost: 25° C.; for Relative humidity below which hydrate water is lost: desorption. The source says: The crystalline modifications of the present invention can be characterized according to standard methods which can be found e.g. in Rolf Hilfiker, ‘Polymorphism in the Pharmaceutical Industry’, Wiley-VCH, Weinheim 2006, and references therein, e.g. X-Ray diffraction (XRD; chapter 6), IR and Raman spectroscopy (chapter 5), Differential Scanning Calorimetry (DSC) and Thermogravimetric Analysis (TGA) (chapter 3), Water Vapour Sorption Studies (chapter 9), or which can be found e.g. in H. G. Brittain (editor), Polymorphism in Pharmaceutical Solids, Vol. 95, Marcel Dekker Inc., New York 1999 (chapter 6: all there mentioned techniques).
Pronounced water uptake levels are observed above 70% RH (crystalline modification A type a) and above 90% RH (crystalline modification A type b), respectively, which results in formation of dihydrate crystalline modification H1 (water uptake levels of approx. 6 wt %) at elevated relative humidity (RH).
Pronounced water uptake levels are observed above 70% RH, which results in formation of crystalline hydrate modification NF5 (water uptake levels of approx. 5-6 wt %) at elevated relative humidity (RH).

Data set [3] in a line: Kinetic solubility determination in water:acetone 30:70 (v:v) after 2 hours (Example 14).
Procedure: (§2) The dispersion was agitated at RT for 2 hours at 450 rpm. After filtration of the dispersion after 2 hours, the filtrate is analysed by HPLC (dilution may be necessary before analysis).
Data set [4] is described as follows: Competitive slurry conversion of crystalline modifications H1 and NF5 in water (Example 12). As to conditions: aqueous slurrying at 25° C., in words. The class given is physicochemical. As for the experimental part: (§1) A PTFE-coated stirring rod was inserted into the dispersion prior to sealing the vial. The dispersion was agitated in closed vial for 12 days, using a magnetic stirrer, at 25° C. The solid-state residue was filtered, and analyzed by XRD to monitor morphic form after solvent slurrying.

Data set [5] in a line: Competitive slurry conversion of crystalline modifications H1 and NF3 in water (Example 13). Format: physicochemical. As to conditions: aqueous slurrying at 25° C., in words. The procedure: A PTFE-coated stirring rod was inserted into the dispersion prior to sealing the vial. The dispersion was agitated in closed vial for 5 days, using a magnetic stirrer, at 25° C. The solid-state residue was filtered, and analyzed by XRD to monitor morphic form after solvent slurrying.

A short description of data set [6]: physchem. As to conditions: organic solvent or mixture, thermodynamic from solid.
Procedure: as §2
Data set [7] in a line: Competitive slurry conversion of crystalline modifications A1 and NF5 in water (Example 11). The class given is physicochemical. The conditions noted are these: aqueous slurrying at 25° C., in words. As for the experimental part:
as §1

Data set [8] is described as follows: Solubility determination in water (Example 9). Format: physicochemical. As to conditions: for pH value: solubility sample in water; for solubility at 1 h / solubility at 2 h: thermodynamic from solid, water, ambient temperature, maximal possible concentration 10 mg/mL. The procedure: The mixture is stirred at 1000 rpm on a magnetic stirring plate at ambient temperature. At the sampling point 100 μL of the respective solution/suspension are transferred to a 500 μL Eppendorff cap and are centrifuged for 5 min at 14000 rpm.

A short description of data set [9]: Stability in aqueous solution, salt compared to free base. The class given is physicochemical. As to conditions: in words, no data shown.

Converted amounts (≈) assume the structure as drawn.

As for `Cn1cc(-c2ccc(=O)n(Cc3cccc(-c4ncc(OCCN5CCOCC5)cn4)c3)n2)cn1.O=P(O)(O)O` [crystalline modification A1, 6-(1-methyl-1H-pyrazol-4-yl)-2-{3-[5-(2-morpholin-4-yl-ethoxy)-pyrimidin-2-yl]-benzyl}-2H-pyridazin-3-one dihydrogenphosphate anhydrate], the “Relative stability of forms A1 and NF3” value in data set [1] is listed as “more stable form”. The “Relative humidity range with small water uptake levels upon adsorption” value in data set [2] (type a) is 0-70 % relative humidity (RH); in data set [2] (type b) it was 0-90 % RH. In addition, the “Relative humidity above which pronounced water uptake levels are observed” value was “above 70 % RH” in data set [2] (type a, results in formation of dihydrate H1) and “above 90 % RH” in data set [2] (type b, results in formation of dihydrate H1). The “Water uptake levels at elevated relative humidity (hydrate formation)” value in data set [2] (listed as A1) was “approx. 6 wt %”. The “Physical stable form in the humidity range 0% up to (upper limit)” value in data set [2] (varying relative humidity conditions) is recorded as “at least 70 % RH”. Also, the “Solubility water:acetone (30:70, v:v) after 2 h” value in data set [3] (kinetic solubility, RT, 2 hours, 450 rpm) was found to be 18200 µg/mL.
`Cn1cc(-c2ccc(=O)n(Cc3cccc(-c4ncc(OCCN5CCOCC5)cn4)c3)n2)cn1.O.O.O=P(O)(O)O` [crystalline modification H1, 6-(1-methyl-1H-pyrazol-4-yl)-2-{3-[5-(2-morpholin-4-yl-ethoxy)-pyrimidin-2-yl]-benzyl}-2H-pyridazin-3-one dihydrogenphosphate dihydrate]: the “Relative stability of forms H1 and NF5” value in data set [4] is “stable form in an aqueous dispersion system”. Also, in [5], the “Relative stability of forms H1 and NF3” value is on record as “more stable form in an aqueous dispersion system”. In data set [2], the “Relative humidity above which re-conversion to the hydrate form occurs upon adsorption” value was greater than 70 % RH and the “Relative humidity below which hydrate water is lost” value is < 40 % relative humidity (RH).
Consider `Cn1cc(-c2ccc(=O)n(Cc3cccc(-c4ncc(OCCN5CCOCC5)cn4)c3)n2)cn1.O=P(O)(O)O` [crystalline modification NF3, 6-(1-methyl-1H-pyrazol-4-yl)-2-{3-[5-(2-morpholin-4-yl-ethoxy)-pyrimidin-2-yl]-benzyl}-2H-pyridazin-3-one dihydrogenphosphate], for which the “Relative humidity range with small water uptake levels upon adsorption” value in data set [2] was 0-70 % relative humidity (RH). In data set [2] (listed as NF3), the “Water uptake levels at elevated relative humidity (hydrate formation)” value is 5-6 wt %. In addition, in data set [2] (results in formation of hydrate NF5), the “Relative humidity above which pronounced water uptake levels are observed” value is “above 70 % RH”. For the same molecule, the solubility at 2 h in [6] worked out at 10600 µg/mL. The “Solubility level after 2 hours compared to form A1” value in data set [3] (water:acetone (30:70, v:v), in words) was “lower solubility level”.
With `Cn1cc(-c2ccc(=O)n(Cc3cccc(-c4ncc(OCCN5CCOCC5)cn4)c3)n2)cn1.O.O=P(O)(O)O` [crystalline modification NF5, 6-(1-methyl-1H-pyrazol-4-yl)-2-{3-[5-(2-morpholin-4-yl-ethoxy)-pyrimidin-2-yl]-benzyl}-2H-pyridazin-3-one dihydrogenphosphate hydrate], the “Relative stability of forms A1 and NF5” value in data set [7] is recorded as “more stable form in an aqueous dispersion system”. Besides, in data set [2], the “Relative humidity above which re-conversion to the hydrate form occurs upon adsorption” value was greater than 70 % RH and the “Relative humidity below which hydrate water is lost” value is on record as < 40 % relative humidity (RH).
In the case of `Cn1cc(-c2ccc(=O)n(Cc3cccc(-c4ncc(OCCN5CCOCC5)cn4)c3)n2)cn1.O=P(O)(O)O` [dihydrogenphosphate, 6-(1-methyl-1H-pyrazol-4-yl)-2-{3-[5-(2-morpholin-4-yl-ethoxy)-pyrimidin-2-yl]-benzyl}-2H-pyridazin-3-one dihydrogenphosphate], the “Solubility in aqueous solutions compared to free base” value in data set [8] (in words) was “significantly higher solubility”. In [8] (sample point 1 h), this molecule showed a pH value of 3.91 and a solubility at 1 h of 9860 µg/mL. In data set [8] (sample point 2 h), this molecule displayed a pH value of 3.97 and a solubility at 2 h greater than 10000 µg/mL. The “Stability in aqueous solution compared to free base” value in data set [9] is “significantly superior stability in aqueous solution”.
The molecule `Cn1cc(-c2ccc(=O)n(Cc3cccc(-c4ncc(OCCN5CCOCC5)cn4)c3)n2)cn1` [free base, 6-(1-methyl-1H-pyrazol-4-yl)-2-{3-[5-(2-morpholin-4-yl-ethoxy)-pyrimidin-2-yl]-benzyl}-2H-pyridazin-3-one] registered a solubility at 1 h in [8] (sample point 1 h) of 167 µg/mL (≈ 353 µM). In data set [8] (sample point 2 h), this molecule showed a solubility at 2 h of 156 µg/mL (≈ 329 µM).
